Our source for the IC50 values is ChEMBL document CHEMBL1123236, “Cardiac glycosides. 7. Sugar stereochemistry and cardiac glycoside activity” (J Med Chem, 1986).

This test has as its target Sodium/potassium-transporting ATPase. Kind of test: Inhibition of hog kidney Na+, K+-dependent ATPase. It counts as protein-complex assay, Sus scrofa. To be noted: read-out: I50.

SMILES strings stand for the structures.

In the case of `C[C@H]1O[C@@H](O[C@H]2CC[C@@]3(C)[C@H](CC[C@@H]4[C@@H]3CC[C@]3(C)[C@@H](C5=CC(=O)OC5)CC[C@]43O)C2)C[C@H](O)[C@@H]1O`, the IC50 was 7.04 nM.
For `C[C@]12CC[C@H](O[C@@H]3O[C@@H](CO)[C@H](O)[C@@H](O)[C@H]3O)C[C@H]1CC[C@@H]1[C@@H]2CC[C@]2(C)[C@@H](C3=CC(=O)OC3)CC[C@]12O`, the IC50 was determined as 87 nM.
For `C[C@]12CC[C@H](O[C@H]3O[C@H](CO)[C@@H](O)[C@H](O)[C@H]3O)C[C@H]1CC[C@@H]1[C@@H]2CC[C@]2(C)[C@@H](C3=CC(=O)OC3)CC[C@]12O` (stereo in doubt; 3c), the IC50 was 129 nM.
On to `C[C@]12CC[C@H](O[C@H]3O[C@H](CO)[C@@H](O)[C@H](O)[C@H]3O)C[C@H]1CC[C@@H]1[C@@H]2CC[C@]2(C)[C@@H](C3=CC(=O)OC3)CC[C@]12O` (stereo in doubt; 3d), for which the IC50 was determined as 38.9 nM.
With `C[C@]12CC[C@H](O[C@H]3O[C@H](CO)[C@@H](O)[C@H](O)[C@H]3O)C[C@H]1CC[C@@H]1[C@@H]2CC[C@]2(C)[C@@H](C3=CC(=O)OC3)CC[C@]12O` (stereo in doubt; 4a), the IC50 worked out at 60.3 nM.
As to `C[C@]12CC[C@H](O[C@H]3O[C@H](CO)[C@@H](O)[C@H](O)[C@H]3O)C[C@H]1CC[C@@H]1[C@@H]2CC[C@]2(C)[C@@H](C3=CC(=O)OC3)CC[C@]12O` (stereo in doubt; 4b), the IC50 was found to be 16 nM.
Consider `C[C@]12CC[C@H](O[C@H]3O[C@H](CO)[C@@H](O)[C@H](O)[C@H]3O)C[C@H]1CC[C@@H]1[C@@H]2CC[C@]2(C)[C@@H](C3=CC(=O)OC3)CC[C@]12O` (stereo in doubt; 4c), for which the IC50 was found to be 93.3 nM.
The same measure for `C[C@]12CC[C@H](O[C@H]3O[C@H](CO)[C@@H](O)[C@H](O)[C@H]3O)C[C@H]1CC[C@@H]1[C@@H]2CC[C@]2(C)[C@@H](C3=CC(=O)OC3)CC[C@]12O` (stereo in doubt; 4d): 10.5 nM.
For the molecule `CC12CCC(O[C@H]3O[C@H](CO)[C@H](O)[C@H](O)[C@H]3O)CC1CCC1C2CC[C@]2(C)C(C3=CC(=O)OC3)CCC12O` (stereo in doubt; form 1), the IC50 was determined as 64.5 nM.
Turning to `C[C@@H]1O[C@@H](O[C@H]2CC[C@@]3(C)[C@H](CC[C@@H]4[C@@H]3CC[C@]3(C)[C@@H](C5=CC(=O)OC5)CC[C@]43O)C2)[C@H](O)[C@H](O)[C@H]1O` (stereo in doubt; form 1), the IC50 was 4.79 nM.
With `CC12CCC(O[C@H]3O[C@H](CO)[C@H](O)[C@H](O)[C@H]3O)CC1CCC1C2CC[C@]2(C)C(C3=CC(=O)OC3)CCC12O` (stereo in doubt; form 2), the IC50 was 17.8 nM.
Regarding `C[C@@H]1O[C@@H](O[C@H]2CC[C@@]3(C)[C@H](CC[C@@H]4[C@@H]3CC[C@]3(C)[C@@H](C5=CC(=O)OC5)CC[C@]43O)C2)[C@H](O)[C@H](O)[C@H]1O` (stereo in doubt; form 2), the IC50 stood at 6.79 nM.
As to `C[C@]12CC[C@H](O[C@@H]3O[C@@H](CO)[C@@H](O)[C@H](O)[C@@H]3O)C[C@H]1CC[C@@H]1[C@@H]2CC[C@]2(C)[C@@H](C3=CC(=O)OC3)CC[C@]12O` (stereo in doubt; form 2), the IC50 stood at 10.7 nM.
